From BigSolDB 2.1

NC(=O)C[C@H](N)C(=O)O.O
solubility (mole fraction)
Details	278.15 K	283.15 K	288.15 K	293.15 K	298.15 K	303.15 K	308.15 K	313.15 K	318.15 K	323.15 K
in acetonitrile	5.98e-06	8.11e-06	1.09e-05	1.44e-05	1.89e-05	2.49e-05	3.2e-05	4.11e-05	5.24e-05	6.64e-05
in ethanol	1.32e-05	1.77e-05	2.36e-05	3.11e-05	4.06e-05	5.25e-05	6.73e-05	8.57e-05	0.000108	0.000136
in ethyl acetate	1.25e-05	1.73e-05	2.29e-05	2.99e-05	3.89e-05	5.01e-05	6.39e-05	8.21e-05	0.000102	0.000129
in isobutanol	1.11e-05	1.49e-05	1.97e-05	2.59e-05	3.38e-05	4.36e-05	5.58e-05	6.98e-05	8.97e-05	0.000114
in isopropanol	9.67e-06	1.26e-05	1.65e-05	2.22e-05	2.91e-05	3.81e-05	4.96e-05	6.19e-05	8.17e-05	0.000104
in methanol	1.54e-05	2.04e-05	2.7e-05	3.52e-05	4.56e-05	5.86e-05	7.42e-05	9.4e-05	0.000118	0.000147
in methyl acetate	1.66e-05	2.23e-05	2.91e-05	3.78e-05	4.89e-05	6.28e-05	7.98e-05	0.000101	0.000127	0.000158
in n-butanol	1.07e-05	1.43e-05	1.9e-05	2.5e-05	3.26e-05	4.2e-05	5.38e-05	6.84e-05	8.62e-05	0.000105
in n-butyl acetate	1.57e-05	2.09e-05	2.7e-05	3.49e-05	4.54e-05	5.76e-05	7.24e-05	9.16e-05	0.000114	0.000142
in n-propanol	1.07e-05	1.45e-05	1.94e-05	2.57e-05	3.37e-05	4.4e-05	5.68e-05	7.28e-05	9.28e-05	0.000117
in n-propyl acetate	1.63e-05	2.14e-05	2.81e-05	3.66e-05	4.76e-05	6.11e-05	7.78e-05	9.84e-05	0.000121	0.000154
in water	0.0014	0.00178	0.00227	0.0028	0.00344	0.00422	0.00518	0.00627	0.0076	0.00914
